# System: stroke or transient ischemic attack (TIA)
# Assay: CARE: stroke (including TIA) statin response by SNP genotype, hazard ratio pravastatin vs placebo (Tables 20-21)
# Assay type: in vivo, human
# Conditions: for EVENTS_RESP (total number of stroke or TIA events): CARE pravastatin arm; for HR_RESP (hazard ratio pravastatin vs placebo, stroke) / HR_RESP (hazard ratio, pravastatin-treated vs placebo-treated): CARE; for HR_RESP (hazard ratio pravastatin vs placebo, stroke): ref = placebo; for HR_RESP (hazard ratio, pravastatin-treated vs placebo-treated): stroke or TIA, pravastatin 40 mg/day
# Description: Tables 20-21 provides SNPs associated with stroke risk and/or stroke statin response (reduction in stroke risk by statin treatment) in the CARE sample set. Consistent with the CARE trial, the stroke endpoint in the analysis for which the results are provided in Tables 20-21 included stroke as well as transient ischemic attack (TIA).
# In Tables 20-22, certain columns are labeled “RESP”, “PLACEBO, OR “ALL”. “RESP” is for statin response as measured by comparing risk (risk for stroke, including TIA, in Tables 20-21, and risk for CHD, specifically recurrent MI, in Table 22) in the pravastatin-treated group with risk in the placebo-treated group, “PLACEBO” is the placebo-treated group, and “ALL” is the combination of the placebo-treated group and the pravastatin-treated group. “RESP” is the analysis to assess statin response in the indicated genotype group.
# “EVENTS” indicates the total number of events (stroke or TIA for Tables 20-21, and recurrent MI for Table 22) in individuals with the indicated genotype.
# “HR” indicates the hazard ratio.
# CARE was a secondary prevention trial and WOSCOPS was a primary prevention trial.
# Table 20 provides SNPs associated with stroke risk and/or stroke statin response in the CARE sample set. For example, SNPs rs10757278 and rs1333049 at chromosomal location 9p21 were associated with a reduction of stroke events by statin treatment in CARE, particularly for heterozygotes (see Table 20). Furthermore, SNPs rs12425791 and rs11833579 at chromosomal location 12p13 near the NINJ2 gene were associated with stroke risk in the placebo arm of CARE (see Table 20). […] Consistent with the CARE trial, the stroke endpoint in the analysis for which the results are provided in Tables 20-21 included stroke as well as transient ischemic attack (TIA).
# Fine-mapping at the chromosome 12p13 locus was carried out by selecting 77 tagging SNPs from a 400 kb region of the chromosome 12p13 locus which covered the NINJ2 gene and other genes, genotyping these 77 SNPs, and further imputing the genotypes of approximately 250 additional SNPs in this region, for individuals in the CARE study. Analyzing these fine-mapping SNPs for association with stroke risk in the placebo arm of CARE and for stroke statin response in CARE identified SNP rs873134 in the B4GALNT3 gene in the chromosome 12p13 region near NINJ2 (see Table 21).
smiles,measurement,setting,value
"CC[C@H](C)C(=O)O[C@H]1C[C@H](O)C=C2C=C[C@H](C)[C@H](CC[C@@H](O)C[C@@H](O)CC(=O)O)[C@H]21 [Pravastatin, pravastatin]",EVENTS_RESP (total number of stroke or TIA events),"rs873134 genotype CC, MODE GEN, of 354 individuals",27
same,EVENTS_RESP (total number of stroke or TIA events),"rs873134 genotype CT + CC, MODE DOM, of 1034 individuals",51
same,EVENTS_RESP (total number of stroke or TIA events),"rs873134 genotype CT + TT, MODE REC, of 1046 individuals",40
same,EVENTS_RESP (total number of stroke or TIA events),"rs873134 genotype CT, MODE GEN, of 680 individuals",24
same,EVENTS_RESP (total number of stroke or TIA events),"rs873134 genotype TT, MODE GEN, of 366 individuals",16
same,"HR_RESP (hazard ratio pravastatin vs placebo, stroke)","rs1333049 (hCV1754666, 9p21), MODE DOM, genotype GC + GG",0.63
same,"HR_RESP (hazard ratio pravastatin vs placebo, stroke)","rs1333049 (hCV1754666, 9p21), MODE GEN, genotype CC",1.11
same,"HR_RESP (hazard ratio pravastatin vs placebo, stroke)","rs1333049 (hCV1754666, 9p21), MODE GEN, genotype GC",0.54
same,"HR_RESP (hazard ratio pravastatin vs placebo, stroke)","rs1333049 (hCV1754666, 9p21), MODE GEN, genotype GG",0.96
same,"HR_RESP (hazard ratio pravastatin vs placebo, stroke)","rs1333049 (hCV1754666, 9p21), MODE REC, genotype GC + CC",0.7
same,"HR_RESP (hazard ratio pravastatin vs placebo, stroke)","rs10757278 (hCV11841860, 9p21), MODE DOM, genotype GA + GG",0.7
same,"HR_RESP (hazard ratio pravastatin vs placebo, stroke)","rs10757278 (hCV11841860, 9p21), MODE GEN, genotype AA",0.9
same,"HR_RESP (hazard ratio pravastatin vs placebo, stroke)","rs10757278 (hCV11841860, 9p21), MODE GEN, genotype GA",0.54
same,"HR_RESP (hazard ratio pravastatin vs placebo, stroke)","rs10757278 (hCV11841860, 9p21), MODE GEN, genotype GG",1.08
same,"HR_RESP (hazard ratio pravastatin vs placebo, stroke)","rs10757278 (hCV11841860, 9p21), MODE REC, genotype GA + AA",0.62
same,"HR_RESP (hazard ratio pravastatin vs placebo, stroke)","rs11833579 (hCV1665834, 12p13), MODE DOM, genotype AG + AA",0.64
same,"HR_RESP (hazard ratio pravastatin vs placebo, stroke)","rs11833579 (hCV1665834, 12p13), MODE GEN, genotype AA",0.26
same,"HR_RESP (hazard ratio pravastatin vs placebo, stroke)","rs11833579 (hCV1665834, 12p13), MODE GEN, genotype AG",0.75
same,"HR_RESP (hazard ratio pravastatin vs placebo, stroke)","rs11833579 (hCV1665834, 12p13), MODE GEN, genotype GG",0.86
same,"HR_RESP (hazard ratio pravastatin vs placebo, stroke)","rs11833579 (hCV1665834, 12p13), MODE REC, genotype AG + GG",0.81
same,"HR_RESP (hazard ratio pravastatin vs placebo, stroke)","rs12425791 (hCV12094896, 12p13), MODE DOM, genotype AG + AA",0.52
same,"HR_RESP (hazard ratio pravastatin vs placebo, stroke)","rs12425791 (hCV12094896, 12p13), MODE GEN, genotype AA",0.28
same,"HR_RESP (hazard ratio pravastatin vs placebo, stroke)","rs12425791 (hCV12094896, 12p13), MODE GEN, genotype AG",0.56
same,"HR_RESP (hazard ratio pravastatin vs placebo, stroke)","rs12425791 (hCV12094896, 12p13), MODE GEN, genotype GG",0.95
same,"HR_RESP (hazard ratio pravastatin vs placebo, stroke)","rs12425791 (hCV12094896, 12p13), MODE REC, genotype AG + GG",0.78
same,"HR_RESP (hazard ratio, pravastatin-treated vs placebo-treated)","rs873134 (hCV2652047) genotype CC, MODE GEN",2.01
same,"HR_RESP (hazard ratio, pravastatin-treated vs placebo-treated)","rs873134 (hCV2652047) genotype CT + CC, MODE DOM",0.83
same,"HR_RESP (hazard ratio, pravastatin-treated vs placebo-treated)","rs873134 (hCV2652047) genotype CT + TT, MODE REC",0.52
same,"HR_RESP (hazard ratio, pravastatin-treated vs placebo-treated)","rs873134 (hCV2652047) genotype CT, MODE GEN",0.5
same,"HR_RESP (hazard ratio, pravastatin-treated vs placebo-treated)","rs873134 (hCV2652047) genotype TT, MODE GEN",0.54

# — patent US10563263B2, “Genetic polymorphisms associated with statin response and cardiovascular diseases, methods of detection and uses thereof” (CELERA CORPORATION, priority 2010, dated 2020)
